According to article PMC11436758, “Computer-aided drug design to generate a unique antibiotic family” (Nature Communications, 2024):
In brackets after ≈: the same amount, converted by molar mass.

Key:
Type in all cases: cell-based
S. aureus (VISA) = experiment: MIC, clinical and laboratory strains
Description: (§1) The medium employed for the assay was Mueller Hinton II Broth (MHB II; Becton-Dickinson, Sparks, MD, USA). Agar plates used for the organisms were trypticase soy agar plus 5% sheep blood (BD; Sparks, MD, USA). MIC assay plates were prepared using the CLSI broth microdilution procedure. Automated liquid handlers (Multidrop 384, Biomek 2000 and Biomek FX) were used to conduct serial dilutions and liquid transfers. A standardized inoculum of each organism was prepared per CLSI methods. Suspensions were prepared to equal a 0.5 McFarland standard, followed by a 1:20 dilution in test media. The inocula were dispensed into sterile reservoirs divided by length (Beckman Colter) and the Biomek 2000 was used to inoculate the plates. Daughter plates were placed on the Biomek 2000 work surface in reverse orientation so that inoculation took place from low to high drug concentration. The Biomek 2000 delivered 10 μL of the diluted suspension into each well. These inoculations yielded a final cell concentration in the daughter plates of ~5 × 10^5 colony-forming units/mL in each well. The wells of the daughter plates ultimately contained 185 μL of broth, 5 μL of drug solution, and 10 μL of bacterial inoculum. Plates were covered with a sterile lid on the top plate, placed in plastic bags, and incubated at 35 °C for ~18 h. The microplates were viewed from the bottom using a plate viewer and the MIC was read. The MIC was recorded as the lowest concentration of drug that inhibited visible growth of the organism.

S. aureus (MSSA) = experiment: MIC, clinical and laboratory strains
Description: as §1

S. aureus (MRSA) = experiment: MIC, clinical and laboratory strains
Description: as §1

[1] = tested on: 102 ATCC strains and clinical isolates of Staphylococcus, Streptomyces, and Enterococcus; experiment: MIC panel summary over all strains; conditions: of 102 strains
Description: We also sought to determine if DNM0547 was bacteriostatic or bactericidal. Time kill experiments were carried out using increasing doses of DNM0547 against two different strains of MRSA.
as §1

MIC (S. aureus (VISA); S. aureus (VISA) 1724): 0.25 µg/mL (≈ 0.341 µM) | MIC (S. aureus (VISA); S. aureus (VISA) 2012): > 16 µg/mL | MIC (S. aureus (VISA); S. aureus (VISA) 2013): > 16 µg/mL | MIC (S. aureus (VISA); S. aureus (VISA) 2014): > 16 µg/mL | MIC (S. aureus (VISA); S. aureus (VISA) 2015): > 16 µg/mL | MIC (S. aureus (VISA); S. aureus (VISA) 2016): > 16 µg/mL | MIC (S. aureus (VISA); S. aureus (VISA) 2017): 0.25 µg/mL (≈ 0.341 µM) | MIC (S. aureus (VISA); S. aureus (VISA) 2018): > 16 µg/mL | MIC (S. aureus (VISA); S. aureus (VISA) 2019): > 16 µg/mL | MIC (S. aureus (VISA); S. aureus (VISA) 2123): > 16 µg/mL | MIC (S. aureus (VISA); S. aureus (VISA) NRS1/1723): > 16 µg/mL | MIC (S. aureus (MSSA); S. aureus (MSSA) 2127): 0.12 µg/mL (≈ 0.164 µM) | MIC (S. aureus (MSSA); S. aureus (MSSA) 6167): > 16 µg/mL | MIC (S. aureus (MSSA); S. aureus (MSSA) 6168): 0.25 µg/mL (≈ 0.341 µM) | MIC (S. aureus (MSSA); S. aureus (MSSA) 6170): 0.5 µg/mL (≈ 0.681 µM) | MIC (S. aureus (MSSA); S. aureus (MSSA) 6316): > 16 µg/mL | MIC (S. aureus (MSSA); S. aureus (MSSA) 6317): 0.5 µg/mL (≈ 0.681 µM) | MIC (S. aureus (MSSA); S. aureus (MSSA) 6318): > 16 µg/mL | MIC (S. aureus (MSSA); S. aureus (MSSA) 6499): > 16 µg/mL | MIC (S. aureus (MSSA); S. aureus (MSSA) 6500): 8 µg/mL (≈ 10.9 µM) | MIC (S. aureus (MSSA); S. aureus (MSSA) 6502): 0.25 µg/mL (≈ 0.341 µM) | MIC (S. aureus (MRSA); S. aureus (MRSA) 2167): > 16 µg/mL | MIC (S. aureus (MRSA); S. aureus (MRSA) 2168): > 16 µg/mL | MIC (S. aureus (MRSA); S. aureus (MRSA) 2169): > 16 µg/mL | MIC (S. aureus (MRSA); S. aureus (MRSA) 2170): > 16 µg/mL | MIC (S. aureus (MRSA); S. aureus (MRSA) 2171): > 16 µg/mL | MIC (S. aureus (MRSA); S. aureus (MRSA) 2293): > 16 µg/mL | MIC (S. aureus (MRSA); S. aureus (MRSA) 2294): > 16 µg/mL | MIC (S. aureus (MRSA); S. aureus (MRSA) 2295): > 16 µg/mL | MIC (S. aureus (MRSA); S. aureus (MRSA) 2296): 0.5 µg/mL (≈ 0.681 µM) | MIC (S. aureus (MRSA); S. aureus (MRSA) 2297): > 16 µg/mL | MIC (S. aureus (MRSA); S. aureus (MRSA) 3880): > 16 µg/mL | MIC (S. aureus (MRSA); S. aureus (MRSA) 5373): > 16 µg/mL | MIC (S. aureus (MRSA); S. aureus (MRSA) 5666): > 16 µg/mL | MIC (S. aureus (MRSA); S. aureus (MRSA) 5702): > 16 µg/mL | MIC (S. aureus (MRSA); S. aureus (MRSA) 5999): > 16 µg/mL | MIC (S. aureus (MRSA); S. aureus (MRSA) 6165): > 16 µg/mL | MIC (S. aureus (MRSA); S. aureus (MRSA) 6169): > 16 µg/mL | MIC (S. aureus (MRSA); S. aureus (MRSA) 6174): > 16 µg/mL | MIC (S. aureus (MRSA); S. aureus (MRSA) 6311): > 16 µg/mL | MIC (S. aureus (MRSA); S. aureus (MRSA) 6312): > 16 µg/mL | MIC (S. aureus (MRSA); S. aureus (MRSA) 6313): > 16 µg/mL | MIC (S. aureus (MRSA); S. aureus (MRSA) 6315): > 16 µg/mL | MIC (S. aureus (MRSA); S. aureus (MRSA) 6320): > 16 µg/mL | MIC (S. aureus (MRSA); S. aureus (MRSA) 6498): 0.5 µg/mL (≈ 0.681 µM) | MIC (S. aureus (MRSA); S. aureus (MRSA) 6501): > 16 µg/mL | MIC (S. aureus (MRSA); S. aureus (MRSA) 6505): > 16 µg/mL | MIC (S. aureus (MRSA); S. aureus (MRSA) 6506): 0.5 µg/mL (≈ 0.681 µM) | MIC (S. aureus (MRSA); S. aureus (MRSA) NRS382/2119): > 16 µg/mL | MIC (S. aureus (MRSA); S. aureus (MRSA) NRS383/2120): > 16 µg/mL | MIC (S. aureus (MRSA); S. aureus (MRSA) NRS384/2011): > 16 µg/mL | number of strains tested with MIC not ≤ 2 μg/mL [1]: 76
SMILES: CC[C@H]1OC(=O)[C@H](C)[C@@H](O[C@H]2C[C@@](C)(OC)[C@@H](O)[C@H](C)O2)[C@H](C)[C@@H](O[C@@H]2O[C@H](C)C[C@H](N(C)C)[C@H]2O)[C@](C)(O)C[C@@H](C)C(=O)[C@H](C)[C@@H](O)[C@]1(C)O [erythromycin]
